How the values were obtained:
A549 = assay: Cytotoxicity against human A549 cells assessed as cell growth inhibition measured after 24 hrs by spectrophotometry based MTT assay; type: functional; conditions: A549, 24 h
MCF7 [1] = assay: Cytotoxicity against human MCF7 cells assessed as cell growth inhibition measured after 24 hrs by spectrophotometry based MTT assay; type: functional; conditions: MCF7, 24 h
HT-29 = assay: Cytotoxicity against human HT-29 cells assessed as cell growth inhibition measured after 24 hrs by spectrophotometry based MTT assay; type: functional; conditions: HT-29, 24 h
MCF7 [2] = assay: Induction of apoptosis in human MCF7 cells assessed as total apoptotic cells at 1.207 uM incubated for 24 hrs by Annexin V-FITC/PI staining based flow cytometry analysis (reference value: 2.51%); type: functional
MCF7 [3] = assay: Induction of apoptosis in human MCF7 cells assessed as necrotic cells at 1.207 uM incubated for 24 hrs by Annexin V-FITC/PI staining based flow cytometry analysis (reference value: 2.04%); type: functional
MCF7 [4] = assay: Induction of cell cycle arrest in human MCF-7 cells assessed as accumulation of cells at G0/G1 phase cells at 1.207 uM incubated for 24 hrs by propidium iodide based flow cytometry analysis (reference value: 66.25%); type: functional
MCF7 [5] = assay: Induction of apoptosis in human MCF7 cells assessed as late apoptotic cells at 1.207 uM incubated for 24 hrs by Annexin V-FITC/PI staining based flow cytometry analysis (reference value: 0.11%); type: functional
[6] = target: Epidermal growth factor receptor (Homo sapiens, UniProt P00533, T790M); assay: Inhibition of human EGFR T790M mutant by Kinase-Glo assay
[7] = target: Epidermal growth factor receptor (Homo sapiens, UniProt P00533); assay: Inhibition of human wild-type EGFR by Kinase-Glo assay
MCF7 [8] = assay: Induction of cell cycle arrest in human MCF-7 cells assessed as accumulation of cells at G2/M phase cells at 1.207 uM incubated for 24 hrs by propidium iodide based flow cytometry analysis (reference value: 9.87%); type: functional
[9] = target: Prostaglandin G/H synthase 1 (Homo sapiens, UniProt P23219)
Description: Inhibition of COX-1 (unknown origin) using arachidonic acid as substrate by fluorescence based analysis

MCF7 [10] = assay: Induction of cell cycle arrest in human MCF-7 cells assessed as accumulation of cells at S phase cells at 1.207 uM incubated for 24 hrs by propidium iodide based flow cytometry analysis (reference value: 23.88%); type: functional
MCF7 [11] = assay: Induction of apoptosis in human MCF7 cells assessed as early apoptotic cells at 1.207 uM incubated for 24 hrs by Annexin V-FITC/PI staining based flow cytometry analysis (reference value: 0.36%); type: functional

Sequence of Epidermal growth factor receptor (Homo sapiens, UniProt P00533, T790M) (P00533 25-1210 T790M limits assumed): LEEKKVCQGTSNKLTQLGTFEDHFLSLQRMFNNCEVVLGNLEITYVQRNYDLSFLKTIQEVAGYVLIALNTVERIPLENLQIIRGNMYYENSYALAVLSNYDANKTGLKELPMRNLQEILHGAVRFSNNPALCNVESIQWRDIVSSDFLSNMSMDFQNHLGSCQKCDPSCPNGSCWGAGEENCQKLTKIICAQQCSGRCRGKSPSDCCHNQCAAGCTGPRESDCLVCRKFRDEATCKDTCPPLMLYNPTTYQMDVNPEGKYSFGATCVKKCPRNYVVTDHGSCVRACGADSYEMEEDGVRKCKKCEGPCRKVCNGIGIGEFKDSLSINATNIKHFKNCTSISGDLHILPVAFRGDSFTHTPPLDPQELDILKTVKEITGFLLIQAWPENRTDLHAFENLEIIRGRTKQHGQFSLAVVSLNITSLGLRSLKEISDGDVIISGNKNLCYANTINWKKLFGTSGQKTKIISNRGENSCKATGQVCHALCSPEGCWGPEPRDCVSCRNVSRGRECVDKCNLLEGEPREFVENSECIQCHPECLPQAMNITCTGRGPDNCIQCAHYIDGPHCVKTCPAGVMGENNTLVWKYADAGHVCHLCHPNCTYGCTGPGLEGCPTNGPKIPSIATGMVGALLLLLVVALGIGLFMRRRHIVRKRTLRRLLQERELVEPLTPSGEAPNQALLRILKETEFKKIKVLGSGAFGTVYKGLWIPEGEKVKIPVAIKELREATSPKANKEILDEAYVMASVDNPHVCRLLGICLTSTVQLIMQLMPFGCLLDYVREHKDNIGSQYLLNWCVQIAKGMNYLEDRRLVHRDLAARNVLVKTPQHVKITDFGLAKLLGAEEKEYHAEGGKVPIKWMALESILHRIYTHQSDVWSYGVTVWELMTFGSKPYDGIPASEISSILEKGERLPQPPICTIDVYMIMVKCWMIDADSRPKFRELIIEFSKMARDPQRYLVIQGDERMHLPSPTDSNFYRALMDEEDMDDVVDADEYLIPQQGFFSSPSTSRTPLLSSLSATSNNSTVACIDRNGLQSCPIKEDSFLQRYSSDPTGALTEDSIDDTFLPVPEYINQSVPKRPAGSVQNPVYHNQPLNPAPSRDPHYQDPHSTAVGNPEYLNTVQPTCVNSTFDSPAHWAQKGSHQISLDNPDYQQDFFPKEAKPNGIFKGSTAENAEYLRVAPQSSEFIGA
Sequence of Prostaglandin G/H synthase 1 (P23219 whole entry): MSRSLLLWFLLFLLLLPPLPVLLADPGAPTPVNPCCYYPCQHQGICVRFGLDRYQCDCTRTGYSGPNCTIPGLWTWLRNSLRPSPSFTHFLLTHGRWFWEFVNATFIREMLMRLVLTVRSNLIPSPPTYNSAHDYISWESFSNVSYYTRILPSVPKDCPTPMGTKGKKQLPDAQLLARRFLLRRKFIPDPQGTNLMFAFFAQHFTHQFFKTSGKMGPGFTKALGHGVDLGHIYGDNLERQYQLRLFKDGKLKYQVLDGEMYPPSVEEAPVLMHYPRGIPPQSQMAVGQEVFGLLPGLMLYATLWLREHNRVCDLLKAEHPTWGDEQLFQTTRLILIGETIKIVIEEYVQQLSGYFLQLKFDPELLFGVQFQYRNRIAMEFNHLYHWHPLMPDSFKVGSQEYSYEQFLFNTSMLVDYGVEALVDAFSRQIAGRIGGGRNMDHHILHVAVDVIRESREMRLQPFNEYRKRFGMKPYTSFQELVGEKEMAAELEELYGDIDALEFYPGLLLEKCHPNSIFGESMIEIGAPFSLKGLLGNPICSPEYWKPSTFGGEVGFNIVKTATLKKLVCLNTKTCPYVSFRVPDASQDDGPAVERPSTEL
Sequence of Epidermal growth factor receptor (Homo sapiens, UniProt P00533) (P00533 whole entry): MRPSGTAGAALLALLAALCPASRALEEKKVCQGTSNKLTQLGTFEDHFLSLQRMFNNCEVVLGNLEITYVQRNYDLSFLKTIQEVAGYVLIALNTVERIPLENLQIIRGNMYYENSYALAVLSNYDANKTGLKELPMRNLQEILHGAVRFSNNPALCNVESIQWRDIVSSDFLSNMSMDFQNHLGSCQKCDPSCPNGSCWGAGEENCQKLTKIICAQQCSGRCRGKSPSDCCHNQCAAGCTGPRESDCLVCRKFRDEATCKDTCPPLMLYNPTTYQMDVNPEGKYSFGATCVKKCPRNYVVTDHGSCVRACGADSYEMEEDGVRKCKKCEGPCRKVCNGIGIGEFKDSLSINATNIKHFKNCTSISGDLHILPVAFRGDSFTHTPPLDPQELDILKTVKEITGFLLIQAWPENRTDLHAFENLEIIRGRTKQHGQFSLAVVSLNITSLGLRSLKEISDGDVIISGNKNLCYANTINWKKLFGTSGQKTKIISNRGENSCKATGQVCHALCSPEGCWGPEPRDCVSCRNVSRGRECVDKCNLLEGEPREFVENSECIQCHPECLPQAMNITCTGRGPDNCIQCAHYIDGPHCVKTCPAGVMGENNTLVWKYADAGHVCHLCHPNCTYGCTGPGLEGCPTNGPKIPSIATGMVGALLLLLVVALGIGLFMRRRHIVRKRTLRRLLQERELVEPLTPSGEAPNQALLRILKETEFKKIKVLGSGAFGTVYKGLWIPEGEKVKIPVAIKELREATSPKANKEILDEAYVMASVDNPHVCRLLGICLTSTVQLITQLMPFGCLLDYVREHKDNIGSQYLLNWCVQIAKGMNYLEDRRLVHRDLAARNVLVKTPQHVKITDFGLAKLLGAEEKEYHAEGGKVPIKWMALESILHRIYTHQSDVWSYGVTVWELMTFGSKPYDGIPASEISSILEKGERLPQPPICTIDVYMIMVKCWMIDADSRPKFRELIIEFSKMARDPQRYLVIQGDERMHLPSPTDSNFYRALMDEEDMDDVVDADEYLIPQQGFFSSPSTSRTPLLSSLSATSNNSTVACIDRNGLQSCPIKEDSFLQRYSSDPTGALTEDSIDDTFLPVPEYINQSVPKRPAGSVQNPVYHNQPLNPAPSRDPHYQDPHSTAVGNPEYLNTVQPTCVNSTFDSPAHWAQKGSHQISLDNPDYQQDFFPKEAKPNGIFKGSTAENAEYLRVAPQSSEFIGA

Structure (SMILES): COc1ccc(C=Nn2c(S)nnc2-c2cnn(-c3ccccc3)c2C)cc1OC
- IC50 (A549): 18.6 µM
- IC50 (MCF7 [1]): 20.2 µM
- IC50 (HT-29): 13.1 µM

Structure (SMILES): Cc1c(-c2nnc(S)n2N=Cc2ccc(F)cc2)cnn1-c1ccc(S(C)(=O)=O)cc1
- Activity (MCF7 [2]): 38.67%
- Activity (MCF7 [3]): 6.29%
- Activity (MCF7 [4]): 47.64%
- Activity (MCF7 [5]): 9.57%
- IC50 [6]: 0.076 µM
- IC50 [7]: 0.121 µM
- IC50 (A549): 14.8 µM
- Activity (MCF7 [8]): 39.15%
- IC50 [9]: 20.1 µM
- Activity (MCF7 [10]): 13.21%
- IC50 (MCF7 [1]): 1.2 µM
- Activity (MCF7 [11]): 22.81%
- IC50 (HT-29): 5.14 µM

Structure (SMILES): COc1cc(C=Nn2c(S)nnc2-c2cnn(-c3ccc(S(C)(=O)=O)cc3)c2C)cc(OC)c1OC
- IC50 (A549): 35.9 µM
- IC50 (MCF7 [1]): 48.5 µM
- IC50 (HT-29): 51.5 µM

Structure (SMILES): COc1cc(C=Nn2c(S)nnc2-c2cnn(-c3ccccc3)c2C)cc(OC)c1OC
- IC50 (A549): 17.2 µM
- IC50 (MCF7 [1]): 33.2 µM
- IC50 (HT-29): 22.5 µM

Structure (SMILES): COc1cccc(C=Nn2c(S)nnc2-c2cnn(-c3ccccc3)c2C)c1OC
- IC50 (A549): 14.8 µM
- IC50 (MCF7 [1]): 41.6 µM
- IC50 (HT-29): 73.7 µM

Structure (SMILES): Cc1c(-c2nnc(S)n2N=Cc2ccc([N+](=O)[O-])cc2)cnn1-c1ccc(S(C)(=O)=O)cc1
- IC50 (A549): 4.89 µM
- IC50 (MCF7 [1]): 4.95 µM
- IC50 (HT-29): 13 µM

Structure (SMILES): Cc1c(-c2nnc(S)n2N=Cc2ccc(N(C)C)cc2)cnn1-c1ccc(S(C)(=O)=O)cc1
- IC50 (A549): 31.8 µM
- IC50 (MCF7 [1]): 10.5 µM
- IC50 (HT-29): 13.9 µM

Structure (SMILES): Cc1c(-c2nnc(S)n2N=Cc2ccc([N+](=O)[O-])cc2)cnn1-c1ccccc1
- IC50 (A549): 6.38 µM
- IC50 (MCF7 [1]): 12.8 µM
- IC50 (HT-29): 10.6 µM

Structure (SMILES): COc1cccc(C=Nn2c(S)nnc2-c2cnn(-c3ccc(S(C)(=O)=O)cc3)c2C)c1OC
- IC50 (A549): 13.5 µM
- IC50 (MCF7 [1]): 22 µM
- IC50 (HT-29): 28.1 µM

Structure (SMILES): Cc1c(-c2nnc(S)n2N=Cc2ccc(N(C)C)cc2)cnn1-c1ccccc1
- IC50 [6]: 0.764 µM
- IC50 [7]: 0.423 µM
- IC50 (A549): 3.78 µM
- IC50 [9]: 36 µM
- IC50 (MCF7 [1]): 7.46 µM
- IC50 (HT-29): 2.93 µM

Structure (SMILES): COc1ccc(C=Nn2c(S)nnc2-c2cnn(-c3ccc(S(C)(=O)=O)cc3)c2C)cc1OC
- IC50 [6]: 0.135 µM
- IC50 [7]: 0.216 µM
- IC50 (A549): 2.38 µM
- IC50 [9]: 14.5 µM
- IC50 (MCF7 [1]): 5.14 µM
- IC50 (HT-29): 9.23 µM

Structure (SMILES): Cc1c(-c2nnc(S)n2N=Cc2ccc(F)cc2)cnn1-c1ccccc1
- IC50 (A549): 7.27 µM
- IC50 (MCF7 [1]): 16.9 µM
- IC50 (HT-29): 12 µM

Structure (SMILES): Cc1ccc(-c2cc(C(F)(F)F)nn2-c2ccc(S(N)(=O)=O)cc2)cc1 [CELECOXIB]
- IC50 (A549): 21.7 µM
- IC50 (MCF7 [1]): 16.5 µM
- IC50 (HT-29): 41.5 µM

Structure (SMILES): C=CC(=O)Nc1cc(Nc2nccc(-c3cn(C)c4ccccc34)n2)c(OC)cc1N(C)CCN(C)C [OSIMERTINIB]
- IC50 (A549): 1.66 µM
- IC50 (MCF7 [1]): 3.45 µM
- IC50 (HT-29): 0.75 µM
